Source: patent US12285407B2, “Bis-indolylmethane derivatives and uses thereof” (The University of The West Indies, priority 2018, dated 2025)
Where two headings read alike, the source gives them in different places.

Legend:
Streptococcus pneumoniae [1] = assay: Adjuvant broth microdilution (antibiotic MIC with SP-BIM at 50 μg/mL); assay type: cell-based; conditions: Streptococcus pneumoniae; Streptococcus pneumonia; antibiotic alone; Table 5; read-out: MIC of antibiotic, No compound
Escherichia coli [2] = assay: microbe, parasite or virus in culture; assay type: cell-based; conditions: antibiotic alone, Table 6, read-out: MIC of antibiotic, No compound
Klebsiella pneumoniae [3] = assay: Adjuvant broth microdilution (antibiotic MIC with SP-BIM at 50 μg/mL); assay type: cell-based; conditions: Klebsiella pneumoniae; antibiotic alone; Table 7; read-out: MIC of antibiotic, No compound
Staphylococcus aureus = assay: Checkerboard synergy (FICI) of antibiotics with SP-BIM; assay type: cell-based; conditions: Staphylococcus aureus, Staphylococcus aureus; for MIC: 24 h, antibiotic alone, read-out: MIC antibiotic only
Streptococcus pneumoniae [4] = assay: as above; assay type: cell-based; conditions: for MIC: 24 h, antibiotic alone, read-out: MIC antibiotic only
Bacillus cereus = assay: as above; assay type: cell-based; conditions: for MIC: 24 h, antibiotic alone, read-out: MIC antibiotic only
Enterococcus faecium = assay: as above; assay type: cell-based; conditions: Enterococcus faecium, Enterococcus faecium; for MIC: 24 h, antibiotic alone, read-out: MIC antibiotic only
Klebsiella pneumoniae [5] = assay: as above; assay type: cell-based; conditions: for MIC: 24 h, antibiotic alone, read-out: MIC antibiotic only
[6] = tested on: clinical strains of Enterococcus faecium; assay: Kirby Bauer disc diffusion susceptibility profile; assay type: cell-based; conditions: for Zone of clearance: 35° C., 24 hours, average n=3; for Interpretive standard (resistant/susceptible): zones vs EUCAST breakpoints (Table 31)
[7] = tested on: clinical antibiotic resistant isolates of Enterococcus faecium; assay: Checkerboard resistance breaking by SP-BIM 13; assay type: cell-based; conditions: for FIC compound / Rescue concentration of SP-BIM 13: SP-BIM 13 with the labelled antibiotic; for Interpretation / Σ FIC: antibiotic + SP-BIM 13; for MIC of antibiotic only: antibiotic alone; for FIC antibiotic: combination with SP-BIM 13; for MIC of antibiotic in combination: with SP-BIM 13 at rescue concentration
Escherichia coli [8] = assay: Checkerboard synergy (FICI) of antibiotics with SP-BIM; parameters: MIC SP-BIM 13 only / MIC in combination: Antibiotic: unit not given beside the values; conditions: for MIC: 24 h
Candida albicans = assay: as above; parameters: MIC SP-BIM 13 only / MIC in combination: Antibiotic / MIC antibiotic only: unit not given beside the values
[9] = SP-BIM 9 in combination with the labelled antibiotic
[10] = SP-BIM 13 in combination with the labelled antibiotic
[11] = antibiotic in combination with SP-BIM 9
[12] = antibiotic in combination with SP-BIM 13
[13] = Streptococcus pneumonia (title: Streptococcus pyogenes), antibiotic + SP-BIM 9
[14] = Streptococcus pneumoniae, antibiotic + SP-BIM 13
[15] = SP-BIM 9 concentration in combination with the labelled antibiotic
[16] = MIC of the antibiotic in combination with SP-BIM 13

[H]/N=C(/N)N[C@H]1[C@H](O)[C@@H](O)[C@H](O[C@@H]2O[C@@H](C)[C@](O)(C=O)[C@H]2O[C@@H]2O[C@@H](CO)[C@H](O)[C@@H](O)[C@@H]2NC)[C@@H](N/C(N)=N\[H])[C@@H]1O [Streptomycin, streptomycin]
MIC (Streptococcus pneumoniae [1]): 16 mg/L | MIC (Escherichia coli [2]): 8 mg/L | MIC (Klebsiella pneumoniae [3]): 32 mg/L | MIC (Staphylococcus aureus; SP-BIM 9 checkerboard): 8 mg/L | MIC (Staphylococcus aureus; SP-BIM 13 checkerboard): 8 mg/L | FIC of SP-BIM 9 (Staphylococcus aureus; [9]): 0.25 | FIC of SP-BIM 13 (Staphylococcus aureus; [10]): 0.3 | Interpretation (Staphylococcus aureus; antibiotic + SP-BIM 9): Synergy (Synergy: FICI≤0.5) | Σ FIC (Staphylococcus aureus; antibiotic + SP-BIM 9): <0.38 | Interpretation (Staphylococcus aureus; antibiotic + SP-BIM 13): Synergy (Synergy: FICI≤0.5) | Σ FIC (Staphylococcus aureus; antibiotic + SP-BIM 13): 0.3 | MIC in combination, Antibiotic (Staphylococcus aureus; [11]): 1.0 mg/L | MIC in combination, Antibiotic (Staphylococcus aureus; [12]): 0.25 mg/L | FIC of antibiotic (Staphylococcus aureus; in combination with SP-BIM 9): 0.13 | FIC of antibiotic (Staphylococcus aureus; in combination with SP-BIM 13): 0.0 | FIC of SP-BIM 9 (Streptococcus pneumoniae [4]; Streptococcus pneumonia (title: Streptococcus pyogenes), SP-BIM 9 in combination with the labelled antibiotic): 0.06 | Interpretation (Streptococcus pneumoniae [4]; [13]): Synergy (Synergy: FICI≤0.5) | Σ FIC (Streptococcus pneumoniae [4]; [13]): <0.07 | MIC in combination, Antibiotic (Streptococcus pneumoniae [4]; Streptococcus pneumonia (title: Streptococcus pyogenes), antibiotic in combination with SP-BIM 9): 0.2 mg/L | FIC of antibiotic (Streptococcus pneumoniae [4]; Streptococcus pneumonia (title: Streptococcus pyogenes), in combination with SP-BIM 9): 0.01 | MIC (Streptococcus pneumoniae [4]; Streptococcus pneumoniae, Streptococcus pneumonia (title: Streptococcus pyogenes), SP-BIM 9 checkerboard): 32 mg/L | MIC (Streptococcus pneumoniae [4]; Streptococcus pneumoniae, Streptococcus pneumoniae, SP-BIM 13 checkerboard): 32 mg/L | FIC of SP-BIM 13 (Streptococcus pneumoniae [4]; Streptococcus pneumoniae, SP-BIM 13 in combination with the labelled antibiotic): 0.3 | Interpretation (Streptococcus pneumoniae [4]; [14]): Synergy (Synergy: FICI≤0.5) | Σ FIC (Streptococcus pneumoniae [4]; [14]): <0.3 | MIC in combination, Antibiotic (Streptococcus pneumoniae [4]; Streptococcus pneumoniae, antibiotic in combination with SP-BIM 13): 1 mg/L | FIC of antibiotic (Streptococcus pneumoniae [4]; Streptococcus pneumoniae, in combination with SP-BIM 13): 0.0 | MIC (Bacillus cereus; SP-BIM 9 checkerboard): 4 mg/L | MIC (Bacillus cereus; SP-BIM 13 checkerboard): 4 mg/L | MIC in combination, SP-BIM 9 (Bacillus cereus; [15]): >250 mg/L | FIC of SP-BIM 9 (Bacillus cereus; [9]): 1 | FIC of SP-BIM 13 (Bacillus cereus; [10]): 0.1 | Interpretation (Bacillus cereus; antibiotic + SP-BIM 9): Synergy (Synergy: FICI≤0.5) | Σ FIC (Bacillus cereus; antibiotic + SP-BIM 9): <1.1 | Interpretation (Bacillus cereus; antibiotic + SP-BIM 13): Synergy (Synergy: FICI≤0.5) | Σ FIC (Bacillus cereus; antibiotic + SP-BIM 13): <0.3 | MIC in combination, Antibiotic (Bacillus cereus; [11]): 0.5 mg/L | MIC in combination, Antibiotic (Bacillus cereus; [12]): 0.5 mg/L | FIC of antibiotic (Bacillus cereus; in combination with SP-BIM 9): 0.125 | FIC of antibiotic (Bacillus cereus; in combination with SP-BIM 13): 0.13 | MIC (Enterococcus faecium; SP-BIM 9 checkerboard): 32 mg/L | MIC (Enterococcus faecium; SP-BIM 13 checkerboard): 32 mg/L | MIC in combination, SP-BIM 9 (Enterococcus faecium; [15]): 16 mg/L | FIC of SP-BIM 9 (Enterococcus faecium; [9]): 0.1 | FIC of SP-BIM 13 (Enterococcus faecium; [10]): 0.5 | Interpretation (Enterococcus faecium; antibiotic + SP-BIM 9): Synergy (Synergy: FICI≤0.5) | Σ FIC (Enterococcus faecium; antibiotic + SP-BIM 9): ≤0.3 | Interpretation (Enterococcus faecium; antibiotic + SP-BIM 13): Additive (Additive: FICI>0.5-1.0) | Σ FIC (Enterococcus faecium; antibiotic + SP-BIM 13): 0.6 | MIC in combination, Antibiotic (Enterococcus faecium; [11]): 8 mg/L | MIC in combination, Antibiotic (Enterococcus faecium; [12]): 4 mg/L | FIC of antibiotic (Enterococcus faecium; in combination with SP-BIM 9): 0.3 | FIC of antibiotic (Enterococcus faecium; in combination with SP-BIM 13): 0.1 | MIC (Klebsiella pneumoniae [5]; SP-BIM 9 checkerboard): 125 mg/L | MIC (Klebsiella pneumoniae [5]; SP-BIM 13 checkerboard): 125 mg/L | FIC of SP-BIM 9 (Klebsiella pneumoniae [5]; [9]): 0.5 | FIC of SP-BIM 13 (Klebsiella pneumoniae [5]; [10]): 0.0 | Interpretation (Klebsiella pneumoniae [5]; antibiotic + SP-BIM 9): Additive (Additive: FICI>0.5-1.0) | Σ FIC (Klebsiella pneumoniae [5]; antibiotic + SP-BIM 9): <0.6 | Interpretation (Klebsiella pneumoniae [5]; antibiotic + SP-BIM 13): Synergy (Synergy: FICI≤0.5) | Σ FIC (Klebsiella pneumoniae [5]; antibiotic + SP-BIM 13): <0.3 | MIC in combination, Antibiotic (Klebsiella pneumoniae [5]; [11]): 16 mg/L | MIC in combination, Antibiotic (Klebsiella pneumoniae [5]; [12]): 32 mg/L | FIC of antibiotic (Klebsiella pneumoniae [5]; in combination with SP-BIM 9): 0.128 | FIC of antibiotic (Klebsiella pneumoniae [5]; in combination with SP-BIM 13): 0.3 | Zone of clearance ([6]; E. faecium strain 15134): 20 mm | Interpretive standard (resistant/susceptible) ([6]; E. faecium strain 15134): S | Zone of clearance ([6]; E. faecium strain 21024): 17 mm | Interpretive standard (resistant/susceptible) ([6]; E. faecium strain 21024): S | Zone of clearance ([6]; E. faecium strain 21955): 13 mm | Interpretive standard (resistant/susceptible) ([6]; E. faecium strain 21955): R | Zone of clearance ([6]; E. faecium strain 22003): 18 mm | Interpretive standard (resistant/susceptible) ([6]; E. faecium strain 22003): S | Zone of clearance ([6]; E. faecium strain 22870): 29 mm | Interpretive standard (resistant/susceptible) ([6]; E. faecium strain 22870): S | Zone of clearance ([6]; E. faecium strain 23227): 25 mm | Interpretive standard (resistant/susceptible) ([6]; E. faecium strain 23227): S | Zone of clearance ([6]; E. faecium strain 23230): 14 mm | Interpretive standard (resistant/susceptible) ([6]; E. faecium strain 23230): S | Zone of clearance ([6]; E. faecium strain 23668): 13 mm | Interpretive standard (resistant/susceptible) ([6]; E. faecium strain 23668): R | Zone of clearance ([6]; E. faecium strain 24169): 19 mm | Interpretive standard (resistant/susceptible) ([6]; E. faecium strain 24169): S | Zone of clearance ([6]; E. faecium strain RC63): 5 mm | Interpretive standard (resistant/susceptible) ([6]; E. faecium strain RC63): R | FIC compound ([7]; E. faecium strain 21955): 0252 | Rescue concentration of SP-BIM 13 ([7]; E. faecium strain 21955): 63 µg/mL | Interpretation ([7]; E. faecium strain 21955): Synergy (Synergy: FICI≤0.5) | Σ FIC ([7]; E. faecium strain 21955): <0.26 | MIC of antibiotic only ([7]; E. faecium strain 21955): 125 mg/L | FIC antibiotic ([7]; E. faecium strain 21955): 0.004 | MIC of antibiotic in combination ([7]; E. faecium strain 21955): 0.5 mg/L | FIC compound ([7]; E. faecium strain 23668): 0.064 | Rescue concentration of SP-BIM 13 ([7]; E. faecium strain 23668): 16 µg/mL | Interpretation ([7]; E. faecium strain 23668): Synergy (Synergy: FICI≤0.5) | Σ FIC ([7]; E. faecium strain 23668): <0.08 | MIC of antibiotic only ([7]; E. faecium strain 23668): 63 mg/L | FIC antibiotic ([7]; E. faecium strain 23668): 0.016 | MIC of antibiotic in combination ([7]; E. faecium strain 23668): 1 mg/L | FIC compound ([7]; E. faecium strain RC63): 0.032 | Rescue concentration of SP-BIM 13 ([7]; E. faecium strain RC63): 8 µg/mL | Interpretation ([7]; E. faecium strain RC63): Synergy (Synergy: FICI≤0.5) | Σ FIC ([7]; E. faecium strain RC63): <0.04 | MIC of antibiotic only ([7]; E. faecium strain RC63): 125 mg/L | FIC antibiotic ([7]; E. faecium strain RC63): 0.008 | MIC of antibiotic in combination ([7]; E. faecium strain RC63): 1 mg/L | MIC (Escherichia coli [8]; read-out: MIC antibiotic only, Escherichia coli, antibiotic alone): 125 mg/L | MIC (Escherichia coli [8]; read-out: MIC antibiotic only, Escherichia coli, antibiotic alone, SP-BIM 9 checkerboard): 125 mg/L | MIC in combination: Antibiotic (Escherichia coli [8]; [16]): 4 | FIC of SP-BIM 9 (Escherichia coli [8]; [9]): 1 | FIC of SP-BIM 13 (Escherichia coli [8]; [10]): 0.3 | Interpretation (Escherichia coli [8]; antibiotic + SP-BIM 9): Indifferent (Indifferent: FICI>1.0-4.0) | Σ FIC (Escherichia coli [8]; antibiotic + SP-BIM 9): <1.1 | Interpretation (Escherichia coli [8]; antibiotic + SP-BIM 13): Synergy (Synergy: FICI≤0.5) | Σ FIC (Escherichia coli [8]; antibiotic + SP-BIM 13): <0.3 | MIC in combination, Antibiotic (Escherichia coli [8]; [11]): 8 mg/L | FIC of antibiotic (Escherichia coli [8]; combination with SP-BIM 13): 0.0 | FIC of antibiotic (Escherichia coli [8]; in combination with SP-BIM 9): 0.064 | MIC (Candida albicans; 24 h, read-out: MIC antibiotic only): > 250 mg/L | MIC in combination: Antibiotic (Candida albicans; [16]): 16 | FIC of SP-BIM 13 (Candida albicans; [10]): 0.1 | Interpretation (Candida albicans; antibiotic + SP-BIM 13): Synergy (Synergy: FICI≤0.5) | Σ FIC (Candida albicans; antibiotic + SP-BIM 13): <0.2 | FIC of antibiotic (Candida albicans; combination with SP-BIM 13): 0.1
